Measurements from paper PMC6057649, “Development of NanoLuc-PEST expressing Leishmania mexicana as a new drug discovery tool for axenic- and intramacrophage-based assays” (PLoS Neglected Tropical Diseases, 2018).

Tested on: NanoLuc-PEST expressing L. mexicana axenic amastigotes
Test: microbe, parasite or virus in culture
Format: cell-based
Details: for Relative Bioluminescence (%) / viability at 2 µM / viability at 10 µM: 72 hours, relative to DMSO only control, n = 4; for viability at 2 µM / viability at 10 µM: Leishmania mexicana, read-out: Relative Bioluminescence (%); for EC50: hit compounds from the axenic amastigote screen, S3 Table, read-out: EC50, Axenic Amastigotes

Compound	Relative Bioluminescence (%) (2 µM compound)	Relative Bioluminescence (%) (10 µM compound)	viability at 2 µM (2 µM compound)	viability at 10 µM (10 µM compound)	EC50
Cc1nn(C)c(C)c1NS(=O)(=O)c1c(Cl)cc(-c2ccnc(N3CCNCC3)c2)cc1Cl [MMV688180]	98.32%	81.67%			
Levofloxacin (-)-ofloxacin [MMV687798, reference compound]	83.03%	74.50%			
COc1cc(C2=NCCN2)cc2cc(-c3ccc(C4=NCCN4)cc3)oc12 [MMV688362]	95.50%	90.68%			
CCC(Sc1nc2ccccc2o1)C(=O)Nc1nccs1 (centres unmarked) [MMV676383]	136.33%	127.92%			
CC(C)C(C(=O)Nc1ccc(S(=O)(=O)N(C)C)cc1)c1ccc(Cl)cc1 (centres unmarked) [MMV020391]	89.71%	17.09%			
CO/C=C(/C(=O)OC)c1ccccc1Oc1cc(Oc2ccccc2C#N)ncn1 [MMV021057, Azoxystrobin]	62.63%	55.66%			
Cc1nn(Cc2ccccc2)c(Cl)c1C(=O)NC1CCCCCC1 [MMV063404]	86.21%	79.51%			
CC1(C)OB(O)c2ccc(C3=NOC(c4cc(Cl)c(F)c(Cl)c4)(C(F)(F)F)C3)cc21 (centres unmarked) [MMV687775]	54.77%	7.40%			
Cc1ccc(NC(=O)CC2COc3ccccc3O2)cc1Cl (centres unmarked) [MMV676431]	104.86%	65.31%			
CNC(=O)C1Cc2ccccc2N1C(=O)Cc1ccc(F)cc1 (centres unmarked) [MMV188296]	81.46%	106.72%			
CC1=Nc2ccc(Cl)cc2C(c2ccccc2)N1CCNC(=O)CN(C)C (centres unmarked) [MMV688410]	114.60%	63.15%			
CC(C)(C(=O)Nc1ccc(F)cc1)n1cc(-c2ccccc2F)cn1 [MMV687239]	106.04%	118.80%			
Cc1cc(C)c2cc(C(=O)NC3CCCCCCC3)[nH]c2c1 [MMV687146]	98.04%	84.77%			
CC(=O)Oc1ccccc1C(=O)Nc1ncc([N+](=O)[O-])s1 [MMV688991, Nitazoxanide, reference compound]			71.1%	0.38%	
CCCCOC(=O)Nc1cc2[nH]c(C3CCCCC3)nc2cc1N1CCCC1 [MMV687730]	85.81%	52.52%			
CC(=O)NC[C@H]1CN(c2ccc(-c3ccc(CNCc4cnn[nH]4)cc3)c(F)c2)C(=O)O1 [MMV688327, Radezolid, reference compound]			87.8%	126%	
O=C1O[C@@H](COc2ccon2)CN1c1cc(F)c(C2=CCN(Cc3ccccc3)CC2)c(F)c1 [MMV687813]	52.93%	58.34%			
Nc1ncc(-c2ccc(C(F)(F)F)nc2)cc1-c1ccc(C(F)(F)F)nc1 [MMV668727]	68.46%	78.89%			

Compound	Relative Bioluminescence (%) (2 µM compound)	Relative Bioluminescence (%) (10 µM compound)	viability at 2 µM (2 µM compound)	viability at 10 µM (10 µM compound)	EC50
O=C(C1CCCCC1)N1CC(=O)N2CCc3ccccc3C2C1 (centres unmarked) [MMV002529, Praziquantel, reference compound]			64.8%	93.8%	
O=C(Nc1ccc(C(F)(F)F)c(C(F)(F)F)c1)c1cc(Cl)ccc1O [MMV687807]	0.88%	0.53%			0.25 µM
O=C(Nc1ccc(F)c(-c2nc3ncc(-c4ccccc4)cc3[nH]2)c1)N1CCCC1 [MMV688372]	17.89%	6.87%			
CC(C)/N=c1\cc2n(-c3ccc(Cl)cc3)c3ccccc3nc-2cc1Nc1ccc(Cl)cc1 [MMV687800, Clofazimine, reference compound]			41.1%	37.9%	
CCc1ccccc1-n1c(C)cn2c3c(=O)n(C(C(=O)OC)C(C)C)c(=O)n(C)c3nc12 (centres unmarked) [MMV688550]	66.32%	56.13%			
Cc1cc(NCC(C)C)c2[nH]nc(-c3ccccc3)c2n1 [MMV021375]	68.90%	58.94%			
Nc1ncnc2c1ncn2C[C@@H](O)[C@@H](O)C(=O)O [MMV689255, D-Eritadenine]	68.65%	73.04%			
CCOC(=O)c1cc(-c2csc(Nc3c(C)cc(C)cc3C)n2)on1 [MMV676461]	79.84%	54.88%			
CC1=NN(c2nc3ccccc3s2)C(=O)C1Cc1cccc2ccccc12 (centres unmarked) [MMV676558]	-0.86%	-0.77%			0.47 µM
Cc1cc(C(=O)Nc2ccc(-c3ccccc3)cc2)no1 [MMV020152]	89.71%	108.81%			
CC1(C)Cc2c(c(N3CCOCC3)nc3snc(Br)c23)CO1 [MMV687794]	97.30%	72.05%			
CCOC(=O)NC(=O)c1ccsc1NC(=O)c1nc2ccccc2s1 [MMV090930]	11.16%	-0.77%			
Cc1cc(C)nc(-n2nc(C)cc2Nc2ccccc2)n1 [MMV062221]	64.16%	7.64%			
COc1ccc(-c2nc(-c3cccc(NC(=O)Cc4ccc(F)cc4)c3)no2)cc1OC [MMV676571]	102.29%	85.94%			
O=C(CN1CCOCC1)Nc1ccc2ncnc(Nc3ccc(OCc4cccc(F)c4)c(Cl)c3)c2c1 [MMV688274]	72.23%	7.31%			
COc1cc(OC)cc(C(=O)NCC2Cc3cc(Cl)cc(-c4ccncc4)c3O2)c1 (centres unmarked) [MMV007471]	87.80%	69.68%			
[H]/N=C(/N)N[C@H]1[C@H](O)[C@@H](O)[C@H](O[C@@H]2O[C@@H](C)[C@](O)(C=O)[C@H]2O[C@@H]2O[C@@H](CO)[C@H](O)[C@@H](O)[C@@H]2NC)[C@@H](N/C(N)=N\[H])[C@@H]1O [MMV688994, Streptomycin, reference compound]			94%	84.3%	
O=C(Nc1cccc(Cl)c1)c1cnc(N2CCN(c3ccncc3)CC2)c(Cl)c1 [MMV024406]	85.94%	93.72%			
